Data published in US20090105206A1, “Copper Melphalan And Copper Tegafur As Anti-Tumor Agents” (priority 2004, published 2009).
Several values for one entry are separate records, joined by “and”; a condition that tells them apart may be missing. Equal values may be shown once.

Assays:
[1] = in water: light blue coloring of the solution, foam on shaking
[2] = tested on: murine renal cell carcinoma (RENCA) tumor cells applied orthotopically; assay: Example 4: orthotopic renal cell carcinoma model (RENCA), treatment Day 1-7; primary tumor, metastases, vessel density (anti-CD31); format: in vivo, Balb/c mouse; conditions: Melphalan 16.4 μmol/kg (5 mg/kg/d) i.p. Day 1-7, individual animals
Protocol: (§1) The tests were carried out on a murine renal cell carcinoma model (RENCA) of the Balb/c mouse. The tumor cells were applied orthotopically into the left-hand renal capsule of syngenic mice. The effect of the treatment carried out on a primary tumor (in the implanted kidney), metastases (predominantly in the lungs, spleen and intestinal lymph nodes) and vessel density were investigated.
(§2) After anesthesia by means of isoflurane narcosis (O2— flow approx. 2.0 l with 0.5-1.5% isoflurane) a small incision was made in the mouse's left flank. The kidney was prepared and presented free from the peritoneum. A 27 G needle was introduced via the lower kidney pole through to below the renal capsule with visual inspection, and […] in 70 μl aliquots respectively applied once. The occurrence of a visible liquid-filled blister between kidney parenchyma and renal capsule and the discoloration of the kidneys were regarded as criteria for successful application. The kidney was subsequently reset and the incision into the abdominal wall closed by means of fascia stitches and cutaneous stitches with absorbable stitching material. Five test groups with ten animals respectively were formed. Group 1 negative control, group 2 positive control melphalan (Glaxo), group 3 and 4 MOC melphalan 2.5 mg/kg and 5 mg/kg. In the case of group 5 an antiangiogenically effective substance was applied as the positive control. The start of treatment was fixed for day 1 post op. for Cu(melphalan)2. Treatment was carried out daily up to day seven (see treatment model). The test was ended after 19 days since, owing to their size, the control tumors required termination for ethical reasons.
• The implantation day was counted as day 0. • Duration of the test 19 days. • Number of animals at beginning of test 50, no animals died during the op.
(§3) After selecting the animals the tissues to be examined were quickly transferred into liquid nitrogen and then frozen at −80° C. 5-10 μm thick sections were prepared from the tissue parts. The preparations were immunohistochemically dyed with an anti-CD31 antibody (Pecam-1) and the number of vessels in the control and treatment groups counted. Two sections of each tumor with three areas respectively were used for counting the vessels.

[3] = tested on: murine renal cell carcinoma (RENCA) tumor cells applied orthotopically; assay: Example 5: orthotopic RENCA model, late treatment from Day 10; format: in vivo, Balb/c mouse
Protocol: as §1, §2, §3
The study report matches that of Example 4, differing only in terms of treatment intervals and dose groups. Four test groups with ten animals respectively were formed. Group 1 negative control, group 2 positive control melphalan (Glaxo), groups 3 and 4 Cu(melphalan)2 5 mg/kg and 7.5 mg/kg. The start of treatment was fixed for day 10 post op. for all groups. The intention was for daily treatment from day 10 until day 17 (see treatment model). Owing to toxicities the treatment period was reduced to day 10-14. After 18 days the test was ended since, owing to their size, the control tumors required termination for ethical reasons.
• The implantation day was counted as day 0. • Duration of the test 18 days. • Number of animals at beginning of test 40; no animals died during the op.

OVCAR-3/P19 tumor cells = assay: Example 6: NOD/SCID mice s.c. injected with OVCAR-3 tumor cells; format: in vivo, female NOD/SCID mice; parameters: Vol (tumor volume) Day 20 / Vol (tumor volume) Day 30 / Vol (tumor volume) Day 37: unit: cm^3
Protocol: 2×10^6 OVCAR-3/P19 tumor cells were s.c. injected into female NOD/SCID mice. The mice were treated as follows.
The treatment began with a mean tumor volume of 80 mm^3.
To level possible differences in tumor volume at the start of treatment in the individual groups and to make evident differences owing to the low absolute volumes in the treatment groups, the relative tumor volumes (RTV) have been analyzed. The relative tumor volume results from the ratio of the volume on day x and the tumor volume at the start of treatment in the same test animal. […] The tumor growth was stopped in group 2 after just 7 days. After 3 days of constant tumor volume a tumor regression began from day 30 (10th day of treatment) in the test animals treated with copper-melphalan.

[4] = Melphalan 16.4 μmol/kg (5 mg/kg/d) i.p. Day 10-14, day 18, individual animals
[5] = Gr. 2, 5 mg/kg melphalan i.p., individual animals
[6] = Gr. 2, 5 mg/kg melphalan i.p., n = 8
[7] = Gr. 2, 5 mg/kg melphalan i.p., n = 8, baseline

O=c1[n-]c(=O)n(C2CCCO2)cc1F.O=c1[n-]c(=O)n(C2CCCO2)cc1F.[Cu+2] (centres unmarked) [Cu(tegafur)2]
solubility behavior [1]: substantially matched that of a copper(II) salt

N[C@@H](Cc1ccc(N(CCCl)CCCl)cc1)C(=O)O [Melphalan, 4-[bis-(2-chloroethyl)-amino]-L-phenylalanine]
Kidney weight ([2]; day 19): 1.70 gr and 0.38 gr and 0.44 gr and 0.13 gr and 1.02 gr and 1.23 gr and 0.12 gr and 0.34 gr and 0.40 gr and 0.65 gr | Lung weight ([2]; day 19): 0.12 gr (2×) and 0.20 gr and 0.13 gr and 0.76 gr and 0.10 gr and 0.25 gr and 0.48 gr and 0.22 gr and 0.14 gr | Number of intestinal lymph node metastases ([2]; day 19): 0 (6×) and 9 and 2 and 8 and 5 | Number of lung metastases ([2]; day 19): 7 and 273 and 1 and >750 (2×) and 28 (2×) and 5 and 640 and 328 | Kidney volume ([2]; test ended day 19): 2.69 cm^3 and 0.58 cm^3 and 1.3 cm^3 and 0.28 cm^3 and 1.76 cm^3 and 2.00 cm^3 and 0.37 cm^3 and 0.77 cm^3 and 1.26 cm^3 and 1.60 cm^3 | Kidney weight [3, 4]: 2.77 gr and 1.38 gr and 0.69 gr and 2.91 gr and 1.90 gr (2×) and 1.63 gr and 2.11 gr and 1.45 gr and 1.13 gr | Lung weight [3, 4]: 0.14 gr and 0.15 gr and 0.13 gr (2×) and 0.28 gr and 0.11 gr and 0.38 gr and 0.10 gr and 0.31 gr | Number of intestinal lymph node metastases [3, 4]: 91 and 0 (3×) and 49 and 17 and 22 and 32 and 84 | Number of lung metastases (late treatment day 10-14) [3, 4]: 304 and 614 and 317 and 5 and 750 (3×) and 71 and 500 and 46 | Vessel density, later start of treatment day 10-14 ([3]; Melphalan 16.4 μmol/kg (5 mg/kg/d) i.p. Day 10-14, individual sections): 36 (2×) and 28 and 42 and 41 and 68 and 35 and 47 and 32 and 37 and 64 and 62 and 40 (2×) and 34 | Kidney volume ([3]; Melphalan 16.4 μmol/kg (5 mg/kg/d) i.p. from Day 10 (planned 10-17, reduced to 10-14), test ended day 18, individual animals): 3.94 cm^3 and 2.59 cm^3 and 2.08 cm^3 and 4.25 cm^3 and 2.84 cm^3 and 2.20 cm^3 and 3.91 cm^3 and 3.63 cm^3 and 2.80 cm^3 and 3.23 cm^3 | Vol (tumor volume) Day 20 (OVCAR-3/P19 tumor cells; Gr. 2, 5 mg/kg melphalan i.p. days 21-37 every 2nd day, Day 20 = start of treatment (baseline), individual animals): 0.04 (2×) and 0.03 and 0.10 (2×) and 0.20 and 0.05 and 0.12 | RTV (relative tumor volume) Day 20 (OVCAR-3/P19 tumor cells; Gr. 2, 5 mg/kg melphalan i.p., Day 20 = start of treatment (baseline), individual animals): 1.00 | RTV (relative tumor volume) Day 30 (OVCAR-3/P19 tumor cells; [5]): 2.75 and 3.00 and 1.40 and 1.75 and 3.20 and 1.42 and 2.20 and 2.50 | RTV (relative tumor volume) Day 37 (OVCAR-3/P19 tumor cells; [5]): 1.98 and 2.37 and 0.81 and 1.05 and 1.66 and 0.82 and 1.71 and 1.18 | Vol (tumor volume) Day 30 (OVCAR-3/P19 tumor cells; [5]): 0.11 and 0.09 and 0.14 and 0.35 and 0.16 and 0.17 and 0.22 and 0.10 | Vol (tumor volume) Day 37 (OVCAR-3/P19 tumor cells; [5]): 0.08 (3×) and 0.07 and 0.21 and 0.10 and 0.17 and 0.05 | RTV Day 30, mean (OVCAR-3/P19 tumor cells; [6]): 2.28 | RTV Day 30, median (OVCAR-3/P19 tumor cells; [6]): 2.35 | RTV Day 37, mean (OVCAR-3/P19 tumor cells; [6]): 1.45 | RTV Day 37, median (OVCAR-3/P19 tumor cells; [6]): 1.42 | Vol Day 30, mean (OVCAR-3/P19 tumor cells; [6]): 0.17 | Vol Day 30, median (OVCAR-3/P19 tumor cells; [6]): 0.15 | Vol Day 37, mean (OVCAR-3/P19 tumor cells; [6]): 0.11 | Vol Day 37, median (OVCAR-3/P19 tumor cells; [6]): 0.08 | RTV Day 20, mean (OVCAR-3/P19 tumor cells; [7]): 1.00 | RTV Day 20, median (OVCAR-3/P19 tumor cells; [7]): 1.00 | Vol Day 20, mean (OVCAR-3/P19 tumor cells; [7]): 0.09 | Vol Day 20, median (OVCAR-3/P19 tumor cells; [7]): 0.08 | mice with RTV>1 on day 37 (OVCAR-3/P19 tumor cells; Gr. 2, 5 mg/kg melphalan, 6 of 8 mice): 75% | tumor regression / growth at the end of treatment (OVCAR-3/P19 tumor cells; Gr. 2, 5 mg/kg melphalan, range over test animals): between 20% tumor regression and 98% growth
